Laboratory results reported in the NIST ThermoML archive (doi:10.1016/j.jct.2016.07.021).
Numbers after ± are expanded uncertainties.

Assay: activity coefficient (dimensionless); of the first substance listed, at infinite dilution; xn = mol fraction of the nth substance listed
Settings: 101.33 kPa, Liquid, Chromatography, x1 = 0

Row | Compound | activity coefficient (313.15 K) | activity coefficient (323.15 K) | activity coefficient (333.15 K) | activity coefficient (343.15 K) | activity coefficient (353.15 K)
1 | ClCCl [dichloromethane] + CCCCCCn1cc[n+](C)c1C.O=S(=O)([N-]S(=O)(=O)C(F)(F)F)C(F)(F)F | 0.74 ± 0.08 | 0.73 ± 0.08 | 0.72 ± 0.08 | 0.71 ± 0.07 | 0.7 ± 0.07
2 | CC1CCCCC1 [methylcyclohexane] + CCCCCCn1cc[n+](C)c1C.O=S(=O)([N-]S(=O)(=O)C(F)(F)F)C(F)(F)F | 6.48 ± 0.68 | 6.26 ± 0.66 | 6.06 ± 0.64 | 5.81 ± 0.61 | 5.62 ± 0.59
3 | C1=CCCCC1 [cyclohexene] + CCCCCCn1cc[n+](C)c1C.O=S(=O)([N-]S(=O)(=O)C(F)(F)F)C(F)(F)F | 3.36 ± 0.35 | 3.29 ± 0.35 | 3.19 ± 0.34 | 3.06 ± 0.32 | 2.93 ± 0.31
4 | Cc1ccc(C)cc1 [1,4-dimethylbenzene] + CCCCCCn1cc[n+](C)c1C.O=S(=O)([N-]S(=O)(=O)C(F)(F)F)C(F)(F)F | 1.39 ± 0.14 | 1.42 ± 0.15 | 1.46 ± 0.15 | 1.5 ± 0.16 | 1.55 ± 0.16
5 | CCCCCCCCCC [decane] + CCCCCCn1cc[n+](C)c1C.O=S(=O)([N-]S(=O)(=O)C(F)(F)F)C(F)(F)F | 26.8 ± 2.8 | 25 ± 2.6 | 23.3 ± 2.5 | 21.6 ± 2.3 | 20.1 ± 2.1
6 | CCCCCC [hexane] + CCCCCCn1cc[n+](C)c1C.O=S(=O)([N-]S(=O)(=O)C(F)(F)F)C(F)(F)F | 7.6 ± 0.8 | 7.41 ± 0.78 | 7.16 ± 0.75 | 6.96 ± 0.73 | 6.78 ± 0.71
7 | CC(C)=O [acetone] + CCCCCCn1cc[n+](C)c1C.O=S(=O)([N-]S(=O)(=O)C(F)(F)F)C(F)(F)F | 0.4 ± 0.05 | 0.42 ± 0.05 | 0.43 ± 0.05 | 0.45 ± 0.05 | 0.46 ± 0.05
8 | CC#N [acetonitrile] + CCCCCCn1cc[n+](C)c1C.O=S(=O)([N-]S(=O)(=O)C(F)(F)F)C(F)(F)F | 0.45 ± 0.05 | 0.46 ± 0.05 | 0.47 ± 0.05 | 0.48 ± 0.05 | 0.48 ± 0.05
9 | CCc1ccccc1 [ethylbenzene] + CCCCCCn1cc[n+](C)c1C.O=S(=O)([N-]S(=O)(=O)C(F)(F)F)C(F)(F)F | 1.34 ± 0.14 | 1.36 ± 0.14 | 1.38 ± 0.14 | 1.4 ± 0.14 | 1.42 ± 0.15
10 | ClC(Cl)Cl [trichloromethane] + CCCCCCn1cc[n+](C)c1C.O=S(=O)([N-]S(=O)(=O)C(F)(F)F)C(F)(F)F | 0.77 ± 0.08 | 0.78 ± 0.08 | 0.79 ± 0.08 | 0.81 ± 0.08 | 0.82 ± 0.08
11 | CCCCCCC [heptane] + CCCCCCn1cc[n+](C)c1C.O=S(=O)([N-]S(=O)(=O)C(F)(F)F)C(F)(F)F | 10.2 ± 1.1 | 9.79 ± 1 | 9.47 ± 1 | 9.2 ± 0.97 | 8.83 ± 0.93
12 | C1CCOC1 [tetrahydrofuran] + CCCCCCn1cc[n+](C)c1C.O=S(=O)([N-]S(=O)(=O)C(F)(F)F)C(F)(F)F | 0.5 ± 0.06 | 0.51 ± 0.06 | 0.53 ± 0.06 | 0.55 ± 0.06 | 0.58 ± 0.06
13 | CCCCCCCC [octane] + CCCCCCn1cc[n+](C)c1C.O=S(=O)([N-]S(=O)(=O)C(F)(F)F)C(F)(F)F | 12.8 ± 1.4 | 11.7 ± 1.2 | 10.6 ± 1.1 | 9.82 ± 1 | 9.16 ± 0.96
14 | C1CCCCC1 [cyclohexane] + CCCCCCn1cc[n+](C)c1C.O=S(=O)([N-]S(=O)(=O)C(F)(F)F)C(F)(F)F | 5.33 ± 0.56 | 5.14 ± 0.54 | 4.99 ± 0.52 | 4.88 ± 0.51 | 4.74 ± 0.5
15 | c1ccccc1 [benzene] + CCCCCCn1cc[n+](C)c1C.O=S(=O)([N-]S(=O)(=O)C(F)(F)F)C(F)(F)F | 0.72 ± 0.08 | 0.72 ± 0.08 | 0.74 ± 0.08 | 0.75 ± 0.08 | 0.76 ± 0.08
16 | ClC(Cl)(Cl)Cl [tetrachloromethane] + CCCCCCn1cc[n+](C)c1C.O=S(=O)([N-]S(=O)(=O)C(F)(F)F)C(F)(F)F | 2.31 ± 0.24 | 2.26 ± 0.24 | 2.19 ± 0.23 | 2.15 ± 0.23 | 2.09 ± 0.22
17 | CCCCCCCCC [nonane] + CCCCCCn1cc[n+](C)c1C.O=S(=O)([N-]S(=O)(=O)C(F)(F)F)C(F)(F)F | 21.5 ± 2.3 | 19.8 ± 2.1 | 18.1 ± 1.9 | 16.6 ± 1.7 | 15.1 ± 1.6
18 | Cc1ccccc1C [1,2-dimethylbenzene] + CCCCCCn1cc[n+](C)c1C.O=S(=O)([N-]S(=O)(=O)C(F)(F)F)C(F)(F)F | 1.17 ± 0.12 | 1.19 ± 0.12 | 1.21 ± 0.12 | 1.22 ± 0.13 | 1.24 ± 0.13
19 | Cc1cccc(C)c1 [1,3-dimethylbenzene] + CCCCCCn1cc[n+](C)c1C.O=S(=O)([N-]S(=O)(=O)C(F)(F)F)C(F)(F)F | 1.34 ± 0.14 | 1.38 ± 0.14 | 1.41 ± 0.15 | 1.44 ± 0.15 | 1.47 ± 0.15
20 | Cc1ccccc1 [toluene] + CCCCCCn1cc[n+](C)c1C.O=S(=O)([N-]S(=O)(=O)C(F)(F)F)C(F)(F)F | 0.96 ± 0.1 | 0.99 ± 0.1 | 1.01 ± 0.1 | 1.03 ± 0.1 | 1.05 ± 0.11
21 | CCCCC [pentane] + CCCCCCn1cc[n+](C)c1C.O=S(=O)([N-]S(=O)(=O)C(F)(F)F)C(F)(F)F | 5.64 ± 0.59 | 5.55 ± 0.58 | 5.45 ± 0.57 | 5.33 ± 0.56 | 5.21 ± 0.55
22 | CCOC(C)=O [ethyl acetate] + CCCCCCn1cc[n+](C)c1C.O=S(=O)([N-]S(=O)(=O)C(F)(F)F)C(F)(F)F | 0.83 ± 0.09 | 0.86 ± 0.09 | 0.88 ± 0.09 | 0.91 ± 0.09 | 0.93 ± 0.09
